Assay results from patent US20230002344A1, “NOVEL BENZOTHIOPHENE DERIVATIVES AND USE THEREOF FOR STIMULATING MITOCHONDRIAL TURNOVER” (NIBN, The National Institute For Biotechnology In The Negev …, priority 2019, published 2023).
“Also recorded” adds a separate entry of the source.

Key:
Type in all cases: cell-based
[1] = tested on: INS1 cells; test: Anion radical superoxide (Mitosox); conditions: 25 uM
Description: INS1 cells were treated for 24 h with SPB08007 (25 uM) or DMSO (0.1%). Mitochondrial membrane potential was analyzed cell by cell through TMRE staining corrected by Mitotracker Green (MTG). Cells were imaged using a 100× Plan Neofluar objective and the Airyscan module of a Zeiss LSM880 confocal microscope. […] Each experiment was repeated 2 times, 59-85 cells of each group were analyzed in each experiment for TMRE/MTG, and 48 fields were analyzed in each experiment for Mitosox analysis. *p<0.05 vs. DMSO; ***p<0.05 vs. DMSO and SPB08007.
Mitotracker Green Fluorescence, Anion Radical Superoxide and Mitochondrial Membrane Potential. INS1 cells were seeded into wells of a 96-wells glass bottom cell culture plate (CELLSTAR) at a density of 2*10^4 cells/well. To assess mitochondrial clearance, a pulse-chase experiment was performed. Briefly, cells were stained with MTG (Molecular Probes) 500 nM for 30 min, washed, and treated with (25 uM) or DMSO 0.1%. After 18 h, cells were imaged using a 40× lens of a Perkin Elmer Operetta high-content imaging system microscope. Results are expressed as the percentage of MTG fluorescence relative to MTG fluorescence of the “time 0” control. […] Integrated fluorescence of each field was analyzed in Image J after background subtraction and threshold (IsoData) application. Twenty-four fields of each condition were analyzed in each experiment.

[2] = tested on: INS1 cells; test: Cell viability (XTT); conditions: 25 μM, 24 hours exposure
Description: Cell Viability. Viability was measured using an XTT kit (Biological Industries), as recommended by the manufacturer. 30,000 cells were seeded in a flat 96-well plate. To each well 100 μl of growth media was added. The cells were incubated in a CO2 incubator at 37° C. In most cases, cells can be used to assay proliferation after 24-96 hours. Each test included a blank containing complete medium without cells as a background control. To prepare a reaction solution sufficient for one plate (96 wells), 0.1 ml activation solution was added to 5 ml XTT reagent. 50 μl of the reaction solution was added to each well and the plate was incubated in an incubator for 2-24 hours. Following the incubation, the plate was shacked gently to evenly distribute the dye in the wells and the absorbance of the samples was measured against a background control with a spectrophotometer (ELISA reader) at a wavelength of 480 nm. To determine non-specific readings we used a wavelength of 650 nm which we subtracted from the 480 nm measurement. The average absorbance of the blank control wells was finally subtracted from that of the other wells.
For all the experiment concerning cell viability, a kit of XTT reagent was used (Biological Industries).

[3] = tested on: INS1 cells expressing mCherry-GFP; test: mCherry-GFP-Fis1101-152 determination of mitophagy
Description: To corroborate the increase in mitochondrial clearance, we determined mitophagy by testing the compounds in INS1 cells expressing mCherry-GFP, a mitochondrial probe that emits green and red fluorescence under physiologic pH but red fluorescence only under acidic pH (such as that occurring in autolysosomes) and is therefore used for quantifying mitophagy. Unlike MitoTimer, which captures the accumulating effect of mitochondrial turnover, mCherry-GFP captures mitophagy at the time that it occurs. Since the timing of the induction of mitophagy by the hits was not known, we did a time-lapse. The cells were treated with the hits for 2, 8 and 18 hours. While after 2 hours and 18 hours, the molecules tended to increase the number of mitochondria inside autophagosomes (data not shown), only after 8 hours was this increase significant.
mCherry-GFP-Fis1101-152 determination of mitophagy. INS1 cells were seeded into 4 compartment […]™ glass bottom cell culture dishes at a density of 2*10^4 cells/compartment. After 48 hours cells were transduced with an adenoviral construct encoding the fluorescent mitophagy reporter mCherry-GFP-Fis1101-152 for 24 hours. A media change containing the indicated treatment concentration or 0.1% DMSO as vehicle control was performed 8 hours before the imaging session. Imaging was performed using a 63× Plan Neofluar objective and the Airyscan module of a Zeiss LSM880 confocal microscope. 25 visual fields containing 59-85 cells in total were imaged per condition. The experiment was repeated three times independently. Image analysis was performed with FIJI ImageJ 1.51p and CellProfiler 2.2.0 rev ac0529e. Briefly, individual cells were cropped and background was subtracted using a median filter assisted processing method (Dunn, K. W., Kamocka, M. M. McDonald, J. H. (2011) A practical guide to evaluating colocalization in biological microscopy. Am. J. Physiol. Cell Physiol. 300, C723-C742). Ratios of red/green fluorescence channels were computed and mitophagy positive structures were recognized based on a lower ratio cut-off of 2.5 of red over green. Mitophagy events per cell were determined by the following formula. […]
Data were normalized to DMSO controls to account for day to day variation. […] Significant treatment differences were determined using One-way ANOVA and Tukey post-hoc analysis. […]
The impact of the hits on mitochondrial turnover was further confirmed by a mitophagy-specific assay, a protein with a tandem mCherry-GFP tag attached to the localization signal of the protein FIS at the OMM. […] When mitochondria enter the lysosomes, the GFP fluorescence is quenched, the remaining red fluorescence is seen as red puncta, representing the undergoing mitophagy events.

[4] = tested on: INS1 cells; test: Lipotoxicity (palmitate) protection and recovery
Description: In FIGS. 4A and 4B: INS1 cells were treated with either DMSO (control), SPB08007 (25 μM), or MWP00839 (25 μM) for 18 hours and were subjected to an Oxygen consumption rate (OCR) test. Viability test (using XTT staining) was determined after 24 hours exposure. […] In FIG. 4C: INS1 cells were treated with 400 μM palmitate (1:5 BSA palmitate) for 24 hours and were then let to recover in presence or absence of SPB08007 (“SBP”) for 18 hours. n=4 (paired t-test).
To address the potential beneficiary effect of mitochondrial clearance by SPB08007 (compound of structural Formula 6), we employed lipotoxicity, a model that we have previously reported to impair autophagy and mitochondrial clearance by alkalization of the lysosomes (Las, G., et al., Fatty acids suppress autophagic turnover in beta-cells. J Biol Chem, 2011.286 (49): p. 42534-44).

- anion radical superoxide formation (Mitosox) [1]: unaffected
Structure (SMILES): CC(=O)N/C(=C\c1sc2ccccc2c1C)C(=O)O [SPB08007]
- viability (XTT) [2]: did not affect viability; also recorded: comparable to DMSO control
- time of peak formation of acidic puncta ([3]; 25 uM): 8 h
- number of acidic puncta (mitophagy events per cell) ([3]; 25 uM, 8 h, vs DMSO): significantly increased
- number of mitophagy events at 18 h ([3]; 25 uM, 18 h): returned to control levels
- number of red fluorescent dots in acidic vesicles (mitophagy) ([3]; 8 hours): increased
- recovery after palmitate ([4]; 400 μM palmitate 24 hours, then 18 hours recovery with compound): slight but significant increase in recovery
- protection from palmitate, co-treatment ([4]; co-treatment with palmitate for 18 hours): did not show any protection
